Read-outs that look alike come from different tables or passages of the source.
Columns and labels:
BV-2 cells [1] = assay: Cell viability (MTT analysis) of beta-amyloid treated BV-2 cells; type: cell-based; details: for viability at 0.05 µM: Mus musculus
Experimental: Beta-amyloid (Aβ25-35, Sigma Chemical Co., St. Louis, Mo., USA) was diluted with aseptic desalted water and preservative solution (1 mM, GIBCO), and kept in aliquots at −70° C. To the treatment of beta-amyloid, beta-amyloid preservative solution was diluted to desired concentrations in a treatment medium (DMEM, GIBCO). The reagents were newly provided as a preservative solution (10 mM) under DMSO (dimethylsulfoxide), and diluted in treatment medium to desired concentrations.
(§1) BV-2 microglia cells (allotted from Pharmacology Division of Ajou University) were cultivated in DMEM (Dulbecco's Modified Eagle's Medium) supplemented with 5% fetal bovine serum (Invitrogen, Carlsbad, Calif., USA), sou/Ml penicillin (Invitrogen, Carlsbad, Calif., USA), and 50 μg/Ml streptomycin (Invitrogen, Carlsbad, Calif., USA) under the atmosphere condition with 5% CO2 and 95% air at 37° C. The medium was replaced once a day, the cells were plate-cultured in a density according to the scale of each experiment.
BV-2 cells were plate-cultured in 96-well plate at the density of 5×10^4, the cell viability was measured according to a conventional MTT analysis method and lactate dehydrogenase (LDH) analysis method. The MTT analysis depends on the metabolism ability of mitochondria of living cell, and reflexes intracellular redox states. The cultured cells were treated with MTT a solution (final concentration: 1 mg/Ml) for 4 hours. Deep blue formazan crystal generated in the original cells was dissolved in a lysis buffer, and then, the absorbance was detected at 595 nm with microplate reader. The LDH activity released from the culture medium was detected, which was evaluated as a cell death index. The culture medium was added to a reagent (test, Sigma Chemical Co, St. Louis, Mo., USA) containing sodium lactate, NADH and sodium pyruvate, and then, the absorbance reduction by NADH at 340 nm was measured. The result was calculated assuming that the LDH activity in homogenate solution of the non-treated control is 100%.
[…] For microscope analysis, BV-2 cells were used in 6-well plate at the density of 5×10^5 cells/well, for MTT analysis, BV-2 cells were used in 96-well plate at the density of 5×10^4 cells/well.
(§2) The obtained prevention effects of KHG25967 compound on toxicity induced by beta-amyloid in BV-2 cells were FIGS. 1A and 1b.
For MTT analysis, BV-2 cells were used on 96-well plate in the density of 5×10^4 cells/well. The quantitative analysis results (unit: %) for the cell viability obtained by MTT analysis were shown in Table 2, wherein the values are represented by the average of three experiments per each concentration.

BV-2 cells [2] = assay: Microscope analysis of cell shape, beta-amyloid treated BV-2 cells; type: cell-based; details: 50 nM KHG25967 for 24 hours after 50 μM beta-amyloid for 2 hours
Experimental: as §1
BV-2 cells were pre-treated with 50 μM of beta-amyloid, and 50 nM of KHG25967 compound was added to the beta-amyloid treated cells for 24 hours. For microscope analysis, BV-2 cells were used in 6-well plate at the density of 5×10^5 cells/well, for MTT analysis, BV-2 cells were used in 96-well plate at the density of 5×10^4 cells/well.
as §2

[3] = system: tumor necrosis factor-alpha; assay: ELISA of tumor necrosis factor-alpha in LPS-treated BV-2 cells; type: cell-based; details: LPS 1 μg/ml for 2 hours, then 50 nM KHG25967 for 6 hours; compared to LPS only as 100%
Experimental: Lipopolysaccharide (LPS)-treated cells (6-well of 5×10^5 cells/3 Ml, Fluka, Sigma-Aldrich, St. Louis, Mo., USA) were collected, and washed with phosphate-buffered saline (PBS). The cells were centrifuged, and then dissolved in pro-prep lysis buffer at 4° C. Interleukin-1 beta and tumor necrosis factor-alpha in the cell lysis solution wherein the cells were dissolved were measured by enzyme-linked immunosorbent analysis plate (R&D systems inc, Minneapolis, Minn., USA). The absorbance at 450 nm was measured using microplate reader. In addition, cytokine was measured using a cytokine measuring system (R&D systems inc, Minneapolis, Minn., USA).
BV-2 cells were pre-treated with 1 μg/ml of LPS (Fluka, Sigma-Aldrich, St. Louis, Mo., USA) for 2 hours, and then, further treated with 50 nM KHG25967 for 6 hours. The changed amounts of cytokines of tumor necrosis factor-alpha and interleukin-1beta were measured from lysate solution where the cells were dissolved in cell lysate solution (Intron Biotechnology, Seoul, Korea).

interleukin-1beta = assay: LPS-induced interleukin-1beta in brain and serum of C57BL/6 mice; type: in vivo; details: oral KHG25967 10 mg/kg or 20 mg/kg every day for 2 weeks, then LPS 10 mg/kg into brain, 6 hours
Experimental: The animal experiment was performed using C57BL/6 mice ([…], 12-14 weeks old, Harlan Sprague Dawley inc, Indianapolis, Ind., USA) by stereotaxis. The intracerebroventricular (ICV) injection was according to the intracerebroventricular injection system described in Craft et al., 2004b. The mice were grown in an accommodation for SPF (specific pathogen free) under 12 hours light/12 hours dark repeat, and supplied with water and feed as recommended by the accommodation for SPF. The study was reviewed and approved by the Institutional Animal Care and Use Committee (IACUC) of Asan Institute for Life Sciences, Asan Medical Center, which abides by the Institute of Laboratory Animal Resources (ILAR) guide.
The effect of KHG25967 on the change of pro-inflammatory cytokines was examined in vivo using 12-14 week old C57BL/6 mice. The control group was administered with PBS only for 2 weeks and then, further treated with PBS for 6 hours. The LPS group was administered with PBS only for 2 weeks and then, 10 mg/kg of LPS was administered into brain using streotaxis. The KHG25967 treated group was administered with 10 mg/kg or 20 mg/kg of KHG25967 every day for 2 weeks, and then, 10 mg/kg of LPS was administered into brain using streotaxis. […] The changes in the level of pro-inflammatory cytokines (interleukin-1beta and tumor necrosis factor-alpha) in the separated blood and brain were measured.

Q: What does the source list for O=C(O)CNC(=O)Nc1nc2ccccc2s1 [KHG25967, 2-(3-benzo[d]thiazole-2-ylureido)acetic acid]?
A: protection against nervous cell degeneration by beta-amyloid, compound pre-treated (BV-2 cells [1]; KHG25967 pre-treated prior to the addition of beta-amyloid, similar to treatment after beta-amyloid): shows a protective effect against nervous degeneration; viability at 0.05 µM (BV-2 cells [1]; BV-2, 50 nM KHG25967 for 24 hours after 50 μM beta-amyloid for 2 hours, beta-amyloid only control 35%, read-out: cell viability (FIG. 1B, MTT analysis)): 83%; viability at 0.05 µM (BV-2 cells [1]; compound 50 nM for 24 hours after 50 μM beta-amyloid for 2 hours, BV-2 cells, average of three experiments, read-out: cell viability by MTT analysis): 83%; morphological characteristics of damaged cells (FIG. 1A) (BV-2 cells [2]): alleviated; suppression of tumor necrosis factor-alpha level (FIG. 3B) [3]: 61%; level of interleukin-1beta in blood (serum, FIG. 4C) (interleukin-1beta): no specific difference; decrease of interleukin-1beta level in brain (FIG. 4A) (interleukin-1beta; compared with LPS only as 100%): 55%

— patent US9012481B2, “Benzoarylureido compounds, and composition for prevention or treatment of neurodegenerative brain disease containing the same” (Korea Institute of Science and Technology, priority 2009, dated 2015)
